Drawing on ChEMBL document CHEMBL1759873, “Novel thiolactone-isatin hybrids as potential antimalarial and antitubercular agents” (Bioorg Med Chem Lett, 2011), this text covers IC50, inhibition and MIC for five compounds.

Molecules are shown by their SMILES. ≈ marks a conversion by molar mass, not a printed value.

One assay relates to Plasmodium falciparum. In words: Antiplasmodial activity against Plasmodium falciparum W2. It is filed as functional, organism-based.
Assay [1] in a line: Inhibition of Plasmodium falciparum W2 recombinant falcipain-2.
Assay [2] concerns Mycobacterium tuberculosis. Description: Antitubercular activity against Mycobacterium tuberculosis H37Rv at 1 ug/ml by BACTEC radiometric susceptibility assay. It is filed as functional.
Assay [3] concerns Mycobacterium tuberculosis. Description: Antitubercular activity against Mycobacterium tuberculosis H37Rv at 10 ug/ml by BACTEC radiometric susceptibility assay. It counts as functional.
Assay [4] has as its system Mycobacterium tuberculosis. Description: Antitubercular activity against Mycobacterium tuberculosis H37Rv by microplate alamar blue assay. It is filed as functional. (Resazurin is reduced to fluorescent resorufin, in cell work by metabolically active cells.)
The test system of assay [5] is Mycobacterium tuberculosis. In words: Antitubercular activity against Mycobacterium tuberculosis H37Rv by LORA assay. It counts as functional.

As for `CC1=C(OCCN2C(=O)C(=O)c3cc(Cl)ccc32)C(C)SC1=O` (centres undefined), the values for the IC50 (with Plasmodium falciparum; in assay [1]) were greater than 20 µM and 47.8 µM, respectively. For the same compound, the inhibition (commonly the relative decrease from the control value, in per cent) at 1 µg/mL in assay [2] was -2.8%. Also, the inhibition at 10 µg/mL in assay [3] came out at 9.9%. Besides, the MIC (usually the least concentration at which growth counts as inhibited) was 63.7 µM (≈ 22.4 µg/mL) in assay [4] and 117 µM (≈ 41.2 µg/mL) in assay [5].

Consider `O=C1C(=O)N(CCCCBr)c2ccc(F)cc21`, for which the IC50 (in general, the concentration that gives 50% inhibition) with Plasmodium falciparum is greater than 20 µM; in assay [1] it was greater than 100 µM. The minimum inhibitory concentration (MIC) came out at 123 µM (≈ 36.9 µg/mL) in assay [4] and 53.3 µM (≈ 16 µg/mL) in assay [5].

With `Cc1ccc2c(c1)C(=O)C(=O)N2CCCCBr`, the IC50 in the assay with Plasmodium falciparum was greater than 20 µM; in assay [1], greater than 100 µM. For the same compound, the MIC in assay [4] came out at 62.7 µM (≈ 18.6 µg/mL); in assay [5] it was 53.2 µM (≈ 15.8 µg/mL).

Take `O=C1C(=O)N(CCCCCBr)c2ccccc21`: the IC50 with Plasmodium falciparum is greater than 20 µM; in assay [1], greater than 100 µM. Moreover, the inhibition at 1 µg/mL in assay [2] was -22.1%. The inhibition at 10 µg/mL in assay [3] is 34.8%. Moreover, the figures for the MIC in assay [4] and in assay [5] were 23.2 µM (≈ 6.87 µg/mL) and 44.4 µM (≈ 13.1 µg/mL), respectively.

`O=C1C(=O)N(CCCCCCBr)c2ccccc21`: the figures for the IC50 (in the assay on Plasmodium falciparum; in assay [1]) were greater than 20 µM and greater than 100 µM, respectively. For the same compound, the results for the minimal inhibitory concentration (MIC) in assay [4] and in assay [5] were 97.6 µM (≈ 30.3 µg/mL) and 108 µM (≈ 33.5 µg/mL), respectively.
